*1 amine or outer side, *2 acyl side, *3 side chain or, on linkers, in order; H or OH if unused. Primed or numbered codes have the meaning given here. Where no end group is shown, it is not given here. Side-chain parts run from the residue outwards. [ ]: non-standard residue; d: D form. The star is where a group is joined. C20 diacid = O=C(O)CCCCCCCCCCCCCCCCCCC(=O)*; γGlu = O=C(O)[C@H](CCC(=O)[*:2])N[*:1]; PEG2′ = not defined here; Aib = CC(C)(N)C(=O)O
Columns and labels:
db/db diabetic mice [1] = experiment: Treatment of 12-week-old db/db diabetic mice: blood glucose, OGTT, ITT, ALT/AST, diabetic nephropathy indices; type: in vivo; conditions: for weekly blood glucose (hypoglycemic effect): FIG. 4A, blood glucose at normal levels at week 1; for weekly blood glucose (hypoglycemic effect) / improving oral glucose tolerance (OGTT) / improving insulin resistance (ITT) / ALT and AST in serum (hepatoprotective function): 120 μg/kg s.c. daily; for improving oral glucose tolerance (OGTT): FIG. 4B, week 4; for improving insulin resistance (ITT): FIG. 4C, week 5; for ALT and AST in serum (hepatoprotective function): FIG. 4D; for H&E staining of kidneys: glomerular adhesion, ameliorative and therapeutic effects: FIG. 5B; for H&E staining of kidneys: glomerular adhesion, ameliorative and therapeutic effects / PAS staining of kidneys: ameliorative effects on glomerular mesangial region / collagen content (Sirius red, FN and α-SMA staining of kidneys): after 8 weeks; for H&E staining of kidneys: glomerular adhesion, ameliorative and therapeutic effects / collagen content (Sirius red, FN and α-SMA staining of kidneys): compared to semaglutide, SAR425899 and MED C18-acid groups; for PAS staining of kidneys: ameliorative effects on glomerular mesangial region: FIG. 5C; for collagen content (Sirius red, FN and α-SMA staining of kidneys): FIGS. 5D to 5F
Method: Normal mice born in the same litter; DC group: db/db mice control group). Blood glucose and body weight were measured on alternate days after daily administration of the medicament, and water intake and food intake were measured once a week. OGTT was measured at week 4, insulin tolerance (ITT) was measured at week 5, metabolism of mice was examined using mouse metabolic cages at weeks 6-7, and various serological and pathological indices were taken at week 8.
Type 2-diabetes mice were characterized by obesity, insulin resistance, hyperglycemia, dyslipidemia and hepatic fat vacuole-like degeneration.
After 6 weeks of medical treatment, the mice was collected for urine using metabolic cages, and the protein content in the urine was detected using relevant kits. After 7 weeks of medical treatment, the material was taken and blood was used to detect serological indicators such as blood creatinine and urea nitrogen.

C57BL/6J mice = experiment: Oral glucose tolerance (OGTT), repeated glucose loads followed to 24 h after one s.c. dose; type: in vivo; conditions: 100 μg/kg subcutaneously; for long-acting hypoglycemic effects compared to semaglutide: four OGTT curves (0-22 h)
Method: Eight-week-old male C57BL/6J mice (Model Animal Research Center, Nanjing University) were randomly grouped according to similar blood glucose (assessed by blood samples obtained from the tail tip), with six mice in each group. […] The initial blood samples (fasted blood glucose levels) were obtained after about 4 h. Subsequently, an oral dose of glucose (2 g/kg) was administered and the animals were placed back in their holding cages (t=0). […] The oral dose of glucose was then repeated at 8 h of administration, 12 h of administration and […], and blood glucose changes were detected and followed until 24 hours. The data were processed using the software GraphPadPrism to make a line graph of blood glucose changes, and the area under the curve was calculated to obtain an AUC graph, and the results are shown in FIG. 1.

db/db diabetic mice [2] = experiment: Dose determination in 8-week-old db/db diabetic mice: blood glucose and body weight; type: in vivo
Method: The db/db mice diabetic model (purchased from Nanjing University-Nanjing Institute of Biomedical Research, about 8 weeks, and blood glucose and body weight were measured to ensure the smooth subsequent experiments) was obtained, and the model mice were randomly divided into 12 groups (including polypeptide compounds 3, 8, 13, 15, semaglutide and physiological saline groups), with 6 mice in each group and no difference in basal body weight and blood glucose. Each group was injected subcutaneously with compound 3 (80 and 120 μg/kg, 2 groups), compound 8 (80 and 120 μg/kg, 2 groups), compound 13 (80 and 120 μg/kg, 2 groups), compound 15 (80 and 120 μg/kg, 2 groups), semaglutide (80 and 120 μg/kg, 2 groups) and physiological saline (DN group: normal mice born in the same litter; DC group: db/db mice control group) every day or every other day.
Blood glucose and body weight of mice were measured after daily administration and 6 h fasting on alternate days.

FN protein (fibronectin) = experiment: Western blot of FN protein in high glucose-induced in vitro renal fibrosis cell model; type: cell-based, rat; conditions: 10 μM; 30 mmol/L glucose; 48 h; mesangial and renal epithelial cells
Description: Hyperglycemia and increased production of glycosylation end products will cause morphological changes such as proliferation and hypertrophy of glomerular mesangial cells, increase in extracellular matrix (ECM) and mesangial expansion, which will eventually lead to the loss of its physiological function. […] Therefore, this example used high glucose to induce MCS mesangial cells and NRK renal epithelial cells to construct an in vitro renal fibrosis cell model for screening medicaments useful for the treatment of diabetic nephropathy. The renal mesangial cell strain GMC and glomerular epithelial cells mTEC used in this example were both cells kept in the applicant's laboratory (both were extracted from rat renal primary cells) and cultured in low sugar medium containing 10% fetal bovine serum. The cells were starved with serum-free culture medium for 24 h when grew to 70% confluence. The cells were divided into the following 9 groups by adjusting the glucose concentration as follows: […]

In the case of “His-(D-Ser)-Gln-Gly-Thr-Phe-Thr-Ser-Asp-Leu-Ser-Lys-Gln-Lys(CO(CH2)14CH3)-Glu-Ser-Lys-Ala-Ala-Gln-Asp-Phe-Ile-Glu-Trp-Leu-Lys-Ala-Gly-Gly-Pro-Ser-Ser-Gly-Ala-Pro-Pro-Pro-Ser-NH2 (HXQGTFTSDLSKQKESKAAQDFIEWLKAGGPSSGAPPPS; D-Ser; palmitoyl lysine; C-terminal amide; SAR425899; (2)..(2) X=D-Ser; (14)..(14) A side chain of Lys is linked to -CO(CH2)14CH3) [compound reported in the prior art, synthesized by the applicant, reference compound]”, the “weekly blood glucose (hypoglycemic effect)” value (“weekly blood glucose” for short) (db/db diabetic mice [1]) is reported as “significant hypoglycemic effects”.
For “His-Aib-Gln-Gly-Thr-Phe-Thr-Ser-Asp-Lys(PEG2-PEG2-γGlu-CO(CH2)18CO2H)-Ser-Lys-Tyr-Leu-Glu-Aib-Lys-Ala-Ala-Gln-Asp-Phe-Val-Glu-Trp-Leu-Lys-Ala-Gly-Gly-Pro-Ser-Ser-Gly-Ala-Pro-Pro-Pro-Ser-NH2 (H[Aib]QGTFTSDK([PEG2′-PEG2′-γGlu-C20 diacid])SKYLE[Aib]KAAQDFVEWLKAGGPSSGAPPPS-NH2) [Compound 1]”, the “long-acting hypoglycemic effects compared to semaglutide” value (C57BL/6J mice) was “superior and significant long-acting hypoglycemic effects”.
With “His-(D-Ser)-Gln-Gly-Thr-Phe-Thr-Ser-Asp-Lys(PEG2-PEG2-CO(CH2)18CO2H)-Ser-Lys-Tyr-Leu-Glu-Aib-Lys-Ala-Ala-Gln-Asp-Phe-Val-Glu-Trp-Leu-Lys-Ala-Gly-Gly-Pro-Ser-Ser-Gly-Ala-Pro-Pro-Pro-Ser-NH2 (H[dS]QGTFTSDK([PEG2′-PEG2′-C20 diacid])SKYLE[Aib]KAAQDFVEWLKAGGPSSGAPPPS-NH2) [Compound 2]” the “long-acting hypoglycemic effects compared to semaglutide” value (C57BL/6J mice) was “superior and significant long-acting hypoglycemic effects”.
In the case of Semaglutide [reference compound], the “blood glucose (glucose-lowering effect)” value (db/db diabetic mice [2]; FIG. 3A, daily s.c., 120 μg/kg, vs saline DC group) is reported as “better hypoglycemic effect, after which it was maintained at a more stable normoglycemic level, but its hypoglycemic effect was not significant”, the “blood glucose (hypoglycemic effect)” value (db/db diabetic mice [2]; FIG. 3B, every other day s.c., 80 μg/kg) is reported as “the hypoglycemic effect was not significant” and the “blood glucose (hypoglycemic effect)” value (db/db diabetic mice [2]; FIG. 3B, every other day s.c., 120 μg/kg) is reported as “the hypoglycemic effect was not significant”. For the same substance, the “subsequent blood glucose course (long-lasting effect)” value (db/db diabetic mice [2]; FIG. 3B, every other day s.c., 120 μg/kg, from day 3 / after days 3-5) was “rebounded on day 3, and its long-lasting effect was not enough”, the “AUC / improvement in glucose tolerance in all four OGTT curves” value (C57BL/6J mice; four OGTT curve periods (0-22 h), compared to control PBS) was “significantly reduced (P<0.05)” and the “weekly blood glucose” value (db/db diabetic mice [1]) was “significant hypoglycemic effects”.
With “His-Aib-Gln-Gly-Thr-Phe-Thr-Ser-Asp-Lys(Gly-Gly-Ser-Gly-Ser-Gly-γGlu-CO(CH2)18-COOH)-Ser-Lys-Tyr-Leu-Asp-Glu-Arg-Ala-Ala-Gln-Asp-Phe-Iva-Gln-Trp-Leu-Leu-Asp-Gly-Gly-Pro-Ser-Ser-Gly-Aib-Pro-Pro-Pro-Ser-NH2 (HXQGTFTSDKSKYLDERAAQDFXQWLLDGGPSSGXPPPS; Aib, Iva; γGlu-C20 diacid lipidation; C-terminal amide; (2)..(2) X=Aib; (10)..(10) A side chain of Lys is linked to -Gly-Gly-Ser-Gly-Ser-Gly-AGlu-CO(CH2)18-COOH; (23)..(23) X=Isovaline; (35)..(35) X=Aib) [Compound 16]” the “weekly blood glucose” value (db/db diabetic mice [1]) was “significant hypoglycemic effects”, the “improving oral glucose tolerance (OGTT)” value (db/db diabetic mice [1]) was “performed more excellent” and the “improving insulin resistance (ITT)” value (db/db diabetic mice [1]) was “performed more excellent”. The “ALT and AST in serum (hepatoprotective function)” value (db/db diabetic mice [1]) was “more excellent hepatoprotective functions”, the “H&E staining of kidneys: glomerular adhesion, ameliorative and therapeutic effects” value (db/db diabetic mice [1]) was “more significant” and the “PAS staining of kidneys: ameliorative effects on glomerular mesangial region” value (db/db diabetic mice [1]) was “more significant”. The “collagen content (Sirius red, FN and α-SMA staining of kidneys)” value (db/db diabetic mice [1]) was “improved more significantly”.
For “His-(D-Ser)-Gln-Gly-Thr-Phe-Thr-Ser-Asp-Tyr-Ser-Lys-Lys(PEG2-PEG2-γGlu-(CH2)17COOH)-Leu-Asp-Ser-Glu-Arg-Ala-Arg-Asp-Phe-Val-Ala-Trp-Leu-Val-Ala-Gly-Gly-NH2 (H[dS]QGTFTSDYSKKLDSERARDFVAWLVAGG-NH2; not fully specified (residue 13); printed as His-(D-Ser)-Gln-Gly-Thr-Phe-Thr-Ser-Asp-Tyr-Ser-Lys-Lys(PEG2-PEG2-γGlu-(CH2)17COOH)-Leu-Asp-Ser-Glu-Arg-Ala-Arg-Asp-Phe-Val-Ala-Trp-Leu-Val-Ala-Gly-Gly-NH2) [MED C18-acid, compound reported in the prior art, synthesized by the applicant, reference compound]”, the “weekly blood glucose” value (db/db diabetic mice [1]) was “significant hypoglycemic effects”.
In the case of “His-(D-Ser)-Gln-Gly-Thr-Phe-Thr-Ser-Asp-Lys(Gly-Gly-Ser-Gly-Ser-Gly-γGlu-CO(CH2)18-COOH)-Ser-Lys-Tyr-Leu-Glu-Aib-Lys-Ala-Ala-Gln-Asp-Phe-Val-Glu-Trp-Leu-Lys-Ala-Gly-Gly-Pro-Ser-Ser-Gly-Ala-Pro-Pro-Pro-Ser-NH2 (HXQGTFTSDKSKYLEXKAAQDFVEWLKAGGPSSGAPPPS; D-Ser, Aib; γGlu-C20 diacid lipidation; C-terminal amide; (2)..(2) X=D-Ser; (10)..(10) A side chain of Lys is linked to -Gly-Gly-Ser-Gly-Ser-Gly-AGlu-CO(CH2)18-COOH; (16)..(16) X=Aib) [Compound 14]”, the “long-acting hypoglycemic effects compared to semaglutide” value (C57BL/6J mice) is reported as “superior and significant long-acting hypoglycemic effects”, the “weekly blood glucose” value (db/db diabetic mice [1]) is reported as “significant hypoglycemic effects” and the “improving oral glucose tolerance (OGTT)” value (db/db diabetic mice [1]) is reported as “performed more excellent”. For the same substance, the “improving insulin resistance (ITT)” value (db/db diabetic mice [1]) was “performed more excellent”, the “ALT and AST in serum (hepatoprotective function)” value (db/db diabetic mice [1]) was “more excellent hepatoprotective functions” and the “H&E staining of kidneys: glomerular adhesion, ameliorative and therapeutic effects” value (db/db diabetic mice [1]) was “more significant”. The “PAS staining of kidneys: ameliorative effects on glomerular mesangial region” value (db/db diabetic mice [1]) was “more significant”, the “collagen content (Sirius red, FN and α-SMA staining of kidneys)” value (db/db diabetic mice [1]) was “improved more significantly” and the “FN protein expression (Western blot)” value (FN protein (fibronectin)) was “inhibited FN expression more significantly”.

Source: patent publication US20230183310A1, “Polypeptide Compounds and Use Thereof in the Prevention or Treatment of Diabetes or Diabetic Complications” (Shenzhen Turier Biotech Co., Ltd., priority 2020, published 2023)
